The test relates to Pulicinae. Description: In vitro flea activity using a membrane feeding assay wherein adult fleas ingest drug-treated bovine blood. It counts as functional.

Bounds are passed on as bounds.

With `C=C(C)[C@H]1C(=O)c2c3c(cc4c5c(n1c24)[C@@]1(C)C(CC[C@H]2[C@](C)(/C=C/CC=O)[C@@H](O)CC[C@@]21C)C5)C1=CC(C)(C)OC(C)(C)C1[C@@H]3O` (stereo not given in full), the Activity worked out at 10 p.p.m. Then `C=C(C)[C@H]1C(=O)c2c3c(cc4c5c(n1c24)[C@@]1(C)C(CC[C@H]2[C@](C)(/C=C/CC(=O)NCC)[C@@H](O)CC[C@@]21C)C5)C1=CC(C)(C)OC(C)(C)C1[C@@H]3O` (stereo not given in full), with 10 p.p.m; and `C=C(C)[C@H]1C(=O)c2c3c(cc4c5c(n1c24)[C@@]1(C)C(CC[C@H]2[C@](C)(/C=C/C(=O)N4CCN(c6ccccn6)CC4)[C@@H](O)CC[C@@]21C)C5)C1=CC(C)(C)OC(C)(C)C1[C@@H]3O` (stereo not given in full), with 1 p.p.m; and `C=C(C)[C@H]1C(=O)c2c3c(cc4c5c(n1c24)[C@@]1(C)C(CC[C@H]2[C@](C)(/C=C/CC(=O)N(C)CCC)[C@@H](O)CC[C@@]21C)C5)C1=CC(C)(C)OC(C)(C)C1[C@@H]3O` (stereo not given in full), with 1 p.p.m. Turning to `C=C(C)[C@H]1C(=O)c2c3c(cc4c5c(n1c24)[C@@]1(C)C(CC[C@H]2[C@](C)(/C=C/C(=O)NC(C)(C)c4ccccn4)[C@@H](O)CC[C@@]21C)C5)C1=CC(C)(C)OC(C)(C)C1[C@@H]3O` (stereo not given in full), the Activity was determined as 1 p.p.m. On to `C=CCN(C)C(=O)/C=C/[C@]1(C)[C@@H](O)CC[C@@]2(C)[C@H]1CCC1Cc3c(n4c5c(c6c(cc35)C3=CC(C)(C)OC(C)(C)C3[C@@H]6O)C(=O)[C@@H]4C(=C)C)[C@@]12C` (stereo not given in full), for which the Activity was above 10 p.p.m. On to `C=C(C)[C@H]1C(=O)c2c3c(cc4c5c(n1c24)[C@@]1(C)C(CC[C@H]2[C@](C)(C/C=C/C(=O)N(C)C)[C@@H](O)CC[C@@]21C)C5)C1=CC(C)(C)OC(C)(C)C1[C@@H]3O` (stereo not given in full), for which the Activity stood at 10 p.p.m. Regarding `C=C(C)[C@H]1C(=O)c2c3c(cc4c5c(n1c24)[C@@]1(C)C(CC[C@H]2[C@](C)(C/C=C/C(=O)NC4CC4)[C@@H](O)CC[C@@]21C)C5)C1=CC(C)(C)OC(C)(C)C1[C@@H]3O` (stereo not given in full), the Activity is above 10 p.p.m. Consider `C=C(C)[C@H]1C(=O)c2c3c(cc4c5c(n1c24)[C@@]1(C)C(CC[C@H]2[C@](C)(C/C=C/C(=O)OC)[C@@H](O)CC[C@@]21C)C5)C1=CC(C)(C)OC(C)(C)C1[C@@H]3O` (stereo not given in full), for which the Activity was 10 p.p.m.

`C=C(C)[C@H]1C(=O)c2c3c(cc4c5c(n1c24)[C@@]1(C)C(CC[C@H]2[C@](C)(/C=C/C(=O)NCCC)[C@@H](O)CC[C@@]21C)C5)C1=CC(C)(C)OC(C)(C)C1[C@@H]3O` (stereo not given in full) had an Activity above 10 p.p.m.

For `C=C(C)[C@H]1C(=O)c2c3c(cc4c5c(n1c24)[C@@]1(C)C(CC[C@H]2[C@](C)(/C=C/C=C(\C)C(=O)O)[C@@H](O)CC[C@@]21C)C5)C1=CC(C)(C)OC(C)(C)C1[C@@H]3O` (stereo not given in full), the Activity was 1 p.p.m.

`C=C(C)[C@H]1C(=O)c2c3c(cc4c5c(n1c24)[C@@]1(C)C(CC[C@H]2[C@](C)(/C=C/C(=O)NCc4ccccc4)[C@@H](O)CC[C@@]21C)C5)C1=CC(C)(C)OC(C)(C)C1[C@@H]3O` (stereo not given in full) showed an Activity of 10 p.p.m. Turning to `C=C(C)[C@H]1C(=O)c2c3c(cc4c5c(n1c24)[C@@]1(C)C(CC[C@H]2[C@](C)(/C=C/CC(=O)OC)[C@@H](O)CC[C@@]21C)C5)C1=CC(C)(C)OC(C)(C)C1[C@@H]3O` (stereo not given in full), the Activity amounted to 1 p.p.m. As for `C=C(C)[C@H]1C(=O)c2c3c(cc4c5c(n1c24)[C@@]1(C)C(CC[C@H]2[C@](C)(/C=C/CC(C)=O)[C@@H](O)CC[C@@]21C)C5)C1=CC(C)(C)OC(C)(C)C1[C@@H]3O` (stereo not given in full), the figure is 1 p.p.m. Then `C=C(C)[C@H]1C(=O)c2c3c(cc4c5c(n1c24)[C@@]1(C)C(CC[C@H]2[C@](C)(/C=C/CC(=O)NC(C)(C)C)[C@@H](O)CC[C@@]21C)C5)C1=CC(C)(C)OC(C)(C)C1[C@@H]3O` (stereo not given in full), with 1 p.p.m. As for `C=C(C)[C@H]1C(=O)c2c3c(cc4c5c(n1c24)[C@@]1(C)C(CC[C@H]2[C@](C)(/C=C/CC(=O)N(C)C)[C@@H](O)CC[C@@]21C)C5)C1=CC(C)(C)OC(C)(C)C1[C@@H]3O` (stereo not given in full), the figure is 10 p.p.m. `C=C(C)[C@H]1C(=O)c2c3c(cc4c5c(n1c24)[C@@]1(C)C(CC[C@H]2[C@](C)(/C=C/CC(=O)Nc4ccccc4)[C@@H](O)CC[C@@]21C)C5)C1=CC(C)(C)OC(C)(C)C1[C@@H]3O` (stereo not given in full) registered an Activity of 1 p.p.m.

The compound `C=C(C)[C@H]1C(=O)c2c3c(cc4c5c(n1c24)[C@@]1(C)C(CC[C@H]2[C@](C)(/C=C/CC(=O)N4CCOCC4)[C@@H](O)CC[C@@]21C)C5)C1=CC(C)(C)OC(C)(C)C1[C@@H]3O` (stereo not given in full) showed an Activity of 1 p.p.m. As for `C=C(C)[C@H]1C(=O)c2c3c(cc4c5c(n1c24)[C@@]1(C)C(CC[C@H]2[C@](C)(/C=C/CC(=O)NCc4ccco4)[C@@H](O)CC[C@@]21C)C5)C1=CC(C)(C)OC(C)(C)C1[C@@H]3O` (stereo not given in full), the figure is 10 p.p.m; as for `C=C(C)[C@H]1C(=O)c2c3c(cc4c5c(n1c24)[C@@]1(C)C(CC[C@H]2[C@](C)(/C=C/CC(=O)NCc4ccccc4)[C@@H](O)CC[C@@]21C)C5)C1=CC(C)(C)OC(C)(C)C1[C@@H]3O` (stereo not given in full), 10 p.p.m. As for `C=C(C)[C@H]1C(=O)c2c3c(cc4c5c(n1c24)[C@@]1(C)C(CC[C@H]2[C@](C)(/C=C/CC(=O)NC4CC4)[C@@H](O)CC[C@@]21C)C5)C1=CC(C)(C)OC(C)(C)C1[C@@H]3O` (stereo not given in full), the figure is 1 p.p.m; as for `C=C(C)[C@H]1C(=O)c2c3c(cc4c5c(n1c24)[C@@]1(C)C(CC[C@H]2[C@](C)(C/C=C/C(=O)NCC)[C@@H](O)CC[C@@]21C)C5)C1=CC(C)(C)OC(C)(C)C1[C@@H]3O` (stereo not given in full), 10 p.p.m.

As to `C=C(C)[C@H]1C(=O)c2c3c(cc4c5c(n1c24)[C@@]1(C)C(CC[C@H]2[C@](C)(/C=C/C(=O)NC)[C@@H](O)CC[C@@]21C)C5)C1=CC(C)(C)OC(C)(C)C1[C@@H]3O` (stereo not given in full), the Activity amounted to 10 p.p.m. For `C=C(C)[C@H]1C(=O)c2c3c(cc4c5c(n1c24)[C@@]1(C)C(CC[C@H]2[C@](C)(/C=C/C(=O)N(C)C)[C@@H](O)CC[C@@]21C)C5)C1=CC(C)(C)OC(C)(C)C1[C@@H]3O` (stereo not given in full), the Activity was above 10 p.p.m. For the compound `C=C(C)[C@H]1C(=O)c2c3c(cc4c5c(n1c24)[C@@]1(C)C(CC[C@H]2[C@](C)(C/C=C/C(C)=O)[C@@H](O)CC[C@@]21C)C5)C1=CC(C)(C)OC(C)(C)C1[C@@H]3O` (stereo not given in full), the Activity came to 10 p.p.m.

Source of the values: ChEMBL document CHEMBL1145730, “Nodulisporic acid side-chain modifications: access to the 2", 3", 4", and 6" registers” (Bioorg Med Chem Lett, 2003).
